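Dose response: 5 concentrations. Exposure: 48 h. Format: 96-well plates. Endpoint: linear interpolation; highest concentration if not reached. Abbreviation: GI50, concentration required for 50% inhibition of growth. TGI: concentration producing complete growth inhibition.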

Common to all, as to assay: NCI tumour cell line growth inhibition, 48 h
In test [1] the test system is 786-0 renal.
Test [2] concerns CCRF-CEM leukemia.
Test [3] concerns COLO 205 colon.
Test [4] deals with DU-145 prostate.
The test system of test [5] is HOP-62 NSCLC.
The test system of test [6] is NCI-H460 lung.
Test [7] concerns RPMI-8226 leukemia.
Test [8] relates to TK-10 renal.
In test [9] the test system is UACC-257 melanoma.
The test system of test [10] is UACC-62 melanoma.

`NC(=O)c1c[se]c(C2OC(CO)C(O)C2O)n1` (centres undefined): the TGI in test [1], in test [2], in test [3], in test [4], in test [5] and in test [6] was above 100 µM each time. For the same compound, the TGI in test [7], in test [8], in test [9] and in test [10] was above 100 µM throughout.

For the compound `Clc1nc(Oc2ccccc2)nc(-c2cn(-c3ccccc3)c3ccccc23)n1`, the GI50 was 18.6 µM in test [1]; 3.99 µM in [2]; 10.6 µM in test [3]; 8.6 µM in [4]; 15.2 µM in test [5]; 21.4 µM in test [6]. Also, the GI50 is 3.29 µM in test [7], 28.7 µM in test [8], 9.2 µM in [9] and 13.2 µM in [10]. Also, the TGI is 35.6 µM in test [1]; 20.3 µM in test [2]; 24.6 µM in test [3]; 21.8 µM in [4]; 29.4 µM in test [5]; above 71.7 µM in [6]. The TGI stood at 21.5 µM in test [7], 67.1 µM in [8], 25 µM in test [9] and 26.6 µM in [10].

On to `O=C(Oc1ccc(O)c2c(=O)n3c(cc12)[nH]c1ccccc13)c1ccccc1`, for which the GI50 in test [1] is 14.4 µM; in test [2], 3.71 µM; in [3], 19.9 µM; in test [4], 30.5 µM; in test [5], 22.4 µM; in [6] it was 81.7 µM. In addition, the GI50 in test [7] was 11.8 µM; in test [8] it was 18.8 µM; in test [9], 16.6 µM; in [10], 13.7 µM. For the same compound, the TGI in test [1] is 32.5 µM; in test [2], 20.7 µM; in test [3], 45.3 µM; in test [4], above 100 µM; in [5] it was 54.5 µM; in test [6], above 100 µM. The TGI in [7] worked out at 51.4 µM; in test [8], 40.8 µM; in [9] it was 42.2 µM; in [10], 27.5 µM.

Take `COc1cc2c(cc1OCc1ccccc1)N=C[C@@H]1C/C(=C/C(=O)NCCCN3C(=O)c4cccc5cccc(c45)C3=O)CN1C2=O`: the GI50 in test [1] is 0.423 µM; in test [2], 0.0548 µM; in [3], 1.56 µM; in [4], 0.381 µM; in test [5], 0.583 µM; in test [6] it was 0.603 µM. The GI50 was 0.432 µM in test [7], 0.466 µM in test [8], 2.26 µM in test [9] and 0.599 µM in test [10]. Also, the TGI in test [1] is 11 µM; in test [2] it was above 100 µM; in test [3], 4.81 µM; in [4], 11.9 µM; in test [5] it was above 40.3 µM; in test [6], 7.15 µM. The TGI is above 100 µM in test [7], 3.43 µM in [8] and 2.55 µM in test [10].

Turning to `COc1ccc(/C=C/c2cc(OC)c(OC)c(OC)c2)cc1NC(=O)/C=C/c1ccc(F)cc1`, the GI50 in test [1] is 4.29 µM; in [2], 2.99 µM; in test [3], 2.43 µM; in test [4], 4.05 µM; in test [5], 3.84 µM; in test [6], 3.09 µM. The GI50 in [7] is 2.1 µM; in [8], 4.73 µM; in test [9] it was 3.02 µM; in [10], 3.32 µM. Further, the TGI in [1] is above 100 µM; in test [2] it was above 31.1 µM; in test [3], 6.71 µM; in test [4], above 40.5 µM; in test [5], above 100 µM; in test [6], above 100 µM. The TGI in test [7], in test [8], in [9] and in [10] was above 100 µM throughout.

Consider `COc1cc(OC2OC(C)C(O)C(O)C2O)cc2oc(-c3ccc(O)cc3)c(CC=C(C)C)c(=O)c12` (centres undefined), for which the GI50 was 11.7 µM in test [1]; 5.97 µM in test [2]; 10 µM in [3]; 34.3 µM in [4]; 18.2 µM in [5]; 14.7 µM in [6]. Also, the GI50 was 9.02 µM in test [7], 25 µM in test [8], 29.6 µM in test [9] and 12.8 µM in test [10]. Further, the TGI in [1] is 60 µM; in [2], 31.8 µM; in test [3], 22.1 µM; in [4], above 100 µM; in test [5] it was 49.6 µM; in [6], 38.7 µM. In addition, the TGI in [7] is 26.6 µM; in test [8], 64.7 µM; in [9] it was 68.4 µM; in [10], 31.9 µM.

As for `CCOC(=O)[C@@H](C)C[C@H](Cc1ccccc1)NC(=O)c1csc([C@@H](C[C@H](C(C)C)N(C)C(=O)[C@@H](NC(=O)[C@H]2C[C@H](O[Si](C)(C)C(C)(C)C)CCN2C)C(C)C)OC(C)=O)n1`, the GI50 is 0.286 µM in test [1]; 0.298 µM in test [2]; 0.145 µM in test [3]; 0.287 µM in test [4]; 0.411 µM in [5]; 0.188 µM in [6]. Further, the GI50 in [7] was 0.275 µM; in test [8], 0.946 µM; in [9], 0.789 µM; in test [10], 0.0545 µM. For the same compound, the TGI is above 4.36 µM in test [1]; above 6.87 µM in test [2]; 0.459 µM in test [3]; above 3.91 µM in test [4]; above 8.01 µM in [5]; 1.34 µM in test [6]. The TGI is 2.25 µM in test [7], above 8.33 µM in [8], above 8.33 µM in [9] and 3.58 µM in test [10].

These data come from PubChem BioAssay (NCI).
